Measured values from patent US20240417428A1, “POLYPEPTIDE FOR INHIBITING TRPM8 AND USE THEREOF” (ZHEJIANG UNIVERSITY, priority 2021, published 2024).
Entries after “also recorded” stand apart in the source; their conditions may differ. Where a SMILES comes first, the peptide text is derived from it.

Key:
TRPM2 = target: T1, TRPM2 (Homo sapiens, UniProt O94759); test: Electrophysiological recording, ligand activation of TRPM2; type: cell-based
T1 construct: expressed in transfected cells; host or cells: HEK293T
T1 sequence (O94759 whole entry): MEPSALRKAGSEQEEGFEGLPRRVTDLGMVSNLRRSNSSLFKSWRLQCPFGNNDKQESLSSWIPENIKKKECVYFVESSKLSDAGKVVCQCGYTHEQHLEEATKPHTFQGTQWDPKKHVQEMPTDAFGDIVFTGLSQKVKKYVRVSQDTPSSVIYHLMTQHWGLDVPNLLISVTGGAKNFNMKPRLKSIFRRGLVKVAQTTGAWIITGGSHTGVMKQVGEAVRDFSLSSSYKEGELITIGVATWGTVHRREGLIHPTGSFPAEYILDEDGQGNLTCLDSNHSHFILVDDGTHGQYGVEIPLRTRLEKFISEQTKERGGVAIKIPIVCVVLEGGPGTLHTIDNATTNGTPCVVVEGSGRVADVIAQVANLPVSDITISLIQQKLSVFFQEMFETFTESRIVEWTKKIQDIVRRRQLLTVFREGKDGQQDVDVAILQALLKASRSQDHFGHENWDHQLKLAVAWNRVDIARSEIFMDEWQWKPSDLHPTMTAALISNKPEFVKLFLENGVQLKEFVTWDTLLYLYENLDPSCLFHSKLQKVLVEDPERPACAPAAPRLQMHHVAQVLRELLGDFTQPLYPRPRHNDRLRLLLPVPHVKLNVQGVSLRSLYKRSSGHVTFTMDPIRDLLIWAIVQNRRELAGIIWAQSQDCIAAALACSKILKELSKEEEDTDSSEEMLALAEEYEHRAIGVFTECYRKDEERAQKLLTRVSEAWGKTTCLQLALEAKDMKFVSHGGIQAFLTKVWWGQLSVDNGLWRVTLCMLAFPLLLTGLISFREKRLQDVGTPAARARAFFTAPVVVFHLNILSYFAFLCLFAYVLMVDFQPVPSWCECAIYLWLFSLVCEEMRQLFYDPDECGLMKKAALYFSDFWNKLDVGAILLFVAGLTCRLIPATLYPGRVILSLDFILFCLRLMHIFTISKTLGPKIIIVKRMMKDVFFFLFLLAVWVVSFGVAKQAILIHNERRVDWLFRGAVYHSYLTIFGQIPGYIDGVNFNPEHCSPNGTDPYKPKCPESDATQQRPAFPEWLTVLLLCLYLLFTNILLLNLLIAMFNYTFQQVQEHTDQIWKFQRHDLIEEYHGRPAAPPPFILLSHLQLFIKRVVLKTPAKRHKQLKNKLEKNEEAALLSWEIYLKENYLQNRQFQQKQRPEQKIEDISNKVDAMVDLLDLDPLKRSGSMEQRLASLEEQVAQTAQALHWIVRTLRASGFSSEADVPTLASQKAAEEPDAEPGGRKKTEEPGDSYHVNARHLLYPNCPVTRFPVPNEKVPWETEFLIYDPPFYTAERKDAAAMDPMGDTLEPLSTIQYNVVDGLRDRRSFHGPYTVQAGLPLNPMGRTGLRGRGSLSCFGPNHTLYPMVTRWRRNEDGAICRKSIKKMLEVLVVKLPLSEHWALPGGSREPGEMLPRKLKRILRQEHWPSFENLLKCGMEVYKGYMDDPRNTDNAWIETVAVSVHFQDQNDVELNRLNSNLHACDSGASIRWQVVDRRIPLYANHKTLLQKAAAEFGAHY
Experimental: (§1) HEK293T cells were cultured in Dulbecco's modified Eagle culture medium under a 37° C., 5% CO2 environment, 10% fetal bovine serum, penicillin (100 U/mL), and streptomycin ([…]) was needed to add into the culture medium. Transient transfection was conducted by using Lipo 2000 (Invitrogen) transfection kit and following the instruction manual.
(§2) Electrophysiological experiment recordings were performed on the cells within 24˜48 h of transient transfections. Specifically, single channel electrophysiological recordings were performed within 8 h after transfection.
(§3) Measurement of the cell currents was respectively performed in the whole-cell recording mode, inside-out recording mode or outside-out recording mode with a HEKA EPC10 amplifier. In the whole cell electrophysiological recordings, glass microelectrodes made of borosilicate material were fire-polished to a original electrode resistance of about 3-6 MΩ. Serial resistance was compensated by 60%. The whole cell electrophysiological recordings were performed at ±80 mV. For single channel electrophysiological recordings, glass microelectrodes were fire-polished to a higher resistance of 6-8 MΩ2. Current signal was sampled at 10 kHz and filtered at 2.9 kHz. Membrane potential of the cell membrane would be clamped at +80 mV. All electrophysiological recordings were performed at room temperature (22° C.) (the maximum variation is 1° C.). […]

[1] = test system: Icilin-induced wet-dog shake behavior; test: Icilin-induced wet-dog shake test; type: in vivo, mice
Experimental: Adult male CD1 mice (6-8 weeks old) were used as experimental animals for behavioral experiments and primary cultures of DRG neurons. Mice were raised in the condition of 12 h light/12 h dark of light cycle with adequate standard chow and water. All animal protocols were approved by the Institutional Animal Care and Use Committee (IACUC) of Zhejiang University.
At least 6 adult male CD1 mice were prepared for experimental or control groups. The animals were pretreated with Vehicle or DeC-1.2 of gradient dose via intravenous injection (i.v.) at 30 min before icilin (intraperitoneal injection, i.p., 2.5 μg/g body weight) treatment. Wet dog shake behavior was recorded and counted for 30 min following icilin administration.

TRPA1 = target: T2, TRPA1 (Homo sapiens, UniProt O75762); test: Electrophysiological recording of TRPA1; type: cell-based
T2 construct: expressed in transfected cells; host or cells: HEK293T
T2 sequence (O75762 whole entry, species assumed): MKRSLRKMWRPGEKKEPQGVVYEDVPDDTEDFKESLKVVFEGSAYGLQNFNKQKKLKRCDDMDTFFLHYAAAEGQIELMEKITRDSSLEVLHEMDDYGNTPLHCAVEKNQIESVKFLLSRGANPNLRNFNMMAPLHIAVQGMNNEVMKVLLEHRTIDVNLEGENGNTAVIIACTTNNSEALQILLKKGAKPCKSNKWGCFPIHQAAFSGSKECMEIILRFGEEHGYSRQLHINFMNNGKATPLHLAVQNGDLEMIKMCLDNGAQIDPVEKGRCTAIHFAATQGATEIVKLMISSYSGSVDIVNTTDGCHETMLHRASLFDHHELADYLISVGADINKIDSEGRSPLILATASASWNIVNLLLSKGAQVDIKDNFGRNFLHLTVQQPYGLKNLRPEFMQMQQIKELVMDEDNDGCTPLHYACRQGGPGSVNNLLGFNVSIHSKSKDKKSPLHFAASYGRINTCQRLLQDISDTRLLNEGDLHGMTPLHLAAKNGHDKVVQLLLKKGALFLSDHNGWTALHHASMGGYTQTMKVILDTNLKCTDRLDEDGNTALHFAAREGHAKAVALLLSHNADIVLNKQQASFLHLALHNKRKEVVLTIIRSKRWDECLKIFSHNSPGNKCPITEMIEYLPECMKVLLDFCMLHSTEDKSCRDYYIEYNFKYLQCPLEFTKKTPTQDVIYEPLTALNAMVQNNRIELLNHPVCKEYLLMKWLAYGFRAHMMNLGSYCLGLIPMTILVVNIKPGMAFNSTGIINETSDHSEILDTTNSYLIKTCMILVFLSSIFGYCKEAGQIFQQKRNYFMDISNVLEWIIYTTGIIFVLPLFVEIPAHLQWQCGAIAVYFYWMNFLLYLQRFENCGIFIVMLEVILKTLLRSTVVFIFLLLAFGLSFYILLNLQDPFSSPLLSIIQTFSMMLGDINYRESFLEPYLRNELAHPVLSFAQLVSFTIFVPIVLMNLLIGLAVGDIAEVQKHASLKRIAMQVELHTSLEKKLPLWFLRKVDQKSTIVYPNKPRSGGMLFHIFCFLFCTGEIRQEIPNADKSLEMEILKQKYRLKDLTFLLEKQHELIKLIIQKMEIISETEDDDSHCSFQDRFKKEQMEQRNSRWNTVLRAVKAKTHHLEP
Experimental: as §1, §2, §3

TRPM8 [2] = target: T3, TRPM8 (Mus musculus, UniProt Q8R4D5); test: Inside-out single-channel recording of menthol-activated TRPM8 at +80 mV; type: cell-based; design: expressed in transfected cells; host or cells: HEK293T
T3 sequence (Q8R4D5 whole entry): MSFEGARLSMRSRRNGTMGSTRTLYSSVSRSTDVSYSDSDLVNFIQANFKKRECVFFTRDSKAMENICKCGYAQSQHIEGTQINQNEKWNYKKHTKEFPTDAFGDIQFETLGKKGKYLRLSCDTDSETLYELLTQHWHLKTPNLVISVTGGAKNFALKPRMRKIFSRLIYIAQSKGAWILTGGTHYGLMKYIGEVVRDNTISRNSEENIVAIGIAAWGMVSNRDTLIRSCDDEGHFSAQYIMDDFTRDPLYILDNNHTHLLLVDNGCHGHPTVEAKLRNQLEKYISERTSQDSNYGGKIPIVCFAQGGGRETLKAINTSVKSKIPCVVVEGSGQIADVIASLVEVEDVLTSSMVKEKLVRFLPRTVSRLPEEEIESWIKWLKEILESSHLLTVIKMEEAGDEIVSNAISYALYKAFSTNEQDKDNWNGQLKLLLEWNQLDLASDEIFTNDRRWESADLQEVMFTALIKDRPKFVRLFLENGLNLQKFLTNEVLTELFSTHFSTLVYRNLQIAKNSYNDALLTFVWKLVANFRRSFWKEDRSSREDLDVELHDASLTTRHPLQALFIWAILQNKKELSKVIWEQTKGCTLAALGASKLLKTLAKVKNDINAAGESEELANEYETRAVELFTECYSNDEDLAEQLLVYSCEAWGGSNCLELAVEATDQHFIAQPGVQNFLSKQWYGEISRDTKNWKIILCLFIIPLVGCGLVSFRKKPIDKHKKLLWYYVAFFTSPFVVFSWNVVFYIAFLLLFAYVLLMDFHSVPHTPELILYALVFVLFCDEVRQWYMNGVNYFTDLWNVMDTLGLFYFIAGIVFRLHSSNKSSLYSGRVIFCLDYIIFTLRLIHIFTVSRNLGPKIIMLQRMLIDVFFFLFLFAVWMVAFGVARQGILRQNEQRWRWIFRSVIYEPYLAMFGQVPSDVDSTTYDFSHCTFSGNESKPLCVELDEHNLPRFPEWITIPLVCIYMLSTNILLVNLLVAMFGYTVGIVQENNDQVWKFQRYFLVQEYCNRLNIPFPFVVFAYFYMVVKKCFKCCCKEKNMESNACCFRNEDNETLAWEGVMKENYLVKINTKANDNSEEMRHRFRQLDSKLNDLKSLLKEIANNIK
Experimental: as §1, §2
Measurement of the cell currents was respectively performed in the whole-cell recording mode, inside-out recording mode or outside-out recording mode with a HEKA EPC10 amplifier. In the whole cell electrophysiological recordings, glass microelectrodes made of borosilicate material were fire-polished to a original electrode resistance of about 3-6 MΩ. Serial resistance was compensated by 60%. The whole cell electrophysiological recordings were performed at ±80 mV. For single channel electrophysiological recordings, glass microelectrodes were fire-polished to a higher resistance of 6-8 MΩ2. Current signal was sampled at 10 kHz and filtered at 2.9 kHz. Membrane potential of the cell membrane would be clamped at +80 mV. All electrophysiological recordings were performed at room temperature (22° C.) (the maximum variation is 1° C.).
There were different bath and pipette solutions prepared for different ion channels current measurement. For ion channels such as TRPM8, TRPV1, TRPV2, TRPV3 and TRPA1, the formula of the bath and pipette solutions was: 130 mM NaCl, 0.2 mM EDTA and 3 mM HEPES, pH=7.2. For the current measurement of TRPM4 ion channel, the formula of the bath solution was: 130 mM NaCl and 3 mM HEPES, pH=7.2, and the formula of the pipette solution was: 500 μM CaCl2), 130 mM NaCl and 3 mM HEPES, pH=7.2. For the current measurement of TRPM2 ion channel, the formula of the bath solution was: 147 mM NaCl, 2 mM KCl, 1 mM MgCl2, 10 mM HEPES, 2 mM CaCl2) 13 mM Glucose, pH=7.4, and the formula of the pipette solution was: 147 mM NaCl, 1 mM MgCl2, 10 mM HEPES, pH=7.4. For the current measurement of Nav1.5, Nav1.7 ion channels, the formula of the bath solution was: 140 mM NaCl, 3 mM KCl, 1 mM MgCl2, 1 mM CaCl2), 10 mM HEPES, pH=7.2 and the formula of the pipette solution was: 140 mM CsF, 1 mM EGTA, 10 mM NaCl, 10 mM MgCl2, 3 mM KCl, pH=7.2. To evoke sodium channel current, the membrane potential was increased from −80 mV to +10 mV.
A rapid solution changer with a gravity-driven perfusion system (RSC-200, BioLogic) was used to rapidly perfuse specific solutions into the cells to be tested. Each solution was delivered through a separate tube so that there is no mixing of solutions. The glass microelectrode with a membrane patch was placed directly below the outlet of the perfusion tube during the electrophysiology recordings.

TRPM8 [3] = target: T3, TRPM8; test: Inside-out single-channel recording of cold-activated TRPM8 (16° C.) at +80 mV; type: cell-based; design: expressed in transfected cells; host or cells: HEK293T; conditions: DeC-1.2 100 μM at 16° C.
Experimental: as §1, §2
as §3, with “mV.” for “mV. All electrophysiological recordings were performed at room temperature (22° C.) (the maximum variation is 1° C.).”
There were different bath and pipette solutions prepared for different ion channels current measurement. […]

Structure (SMILES): C[C@@H]1NC(=O)[C@H](CCCNC(=N)N)NC(=O)[C@H](CC(=O)O)NC(=O)[C@H](CCCNC(=N)N)NC(=O)[C@H](CCCNC(=N)N)NC(=O)[C@@H](N)CSSC[C@@H](C(=O)O)NC(=O)[C@H](CCCNC(=N)N)NC(=O)[C@H](CCC(N)=O)NC(=O)[C@H](CCCNC(=N)N)NC(=O)[C@H](Cc2ccc(O)cc2)NC(=O)[C@H](Cc2c[nH]cn2)NC(=O)[C@H](CCCNC(=N)N)NC1=O [DeC-1.2, CRRDRARHYRQRC] (HELM PEPTIDE1{C.R.R.D.R.A.R.H.Y.R.Q.R.C}$PEPTIDE1,PEPTIDE1,1:R3-13:R3$$$V2.0; N-terminus and C-terminus assumed)
- IC50 (TRPM2): > 100 µM
- block of ligand activation of TRPM2 (TRPM2; DeC-1.2 up to 100 μM): not blocked
- inhibition of WSD behaviors induced by icilin ([1]; 0.3 μg/g body weight i.v., 30 min before icilin): significantly inhibit
- reduction of WDS behavior in icilin treated mice ([1]; 30 μg/g body weight i.v.): largely reduce WDS behavior
- dose dependence of inhibition of icilin-induced wet-dog shakes ([1]; gradient dose i.v.): dose-dependently significantly reduces; also recorded: significantly dose-dependent
- IC50 (TRPA1): > 100 µM
- inhibition of TRPA1 (TRPA1): none of the TRP channels and Nav channels were inhibited
- open probability of TRPM8 (TRPM8 [2]; DeC-1.2 100 μM with saturated menthol (1 mM), n=5): 18.83±1.92%
- change of single-channel conductance of menthol-activated TRPM8 (TRPM8 [2]; DeC-1.2 100 μM, menthol 1 mM): decreases significantly
- change of open probability of menthol-activated TRPM8 (TRPM8 [2]; DeC-1.2 100 μM, menthol 1 mM, P<0.0001): decreases significantly
- effect on open probability of cold-activated TRPM8 (TRPM8 [3]): does not change significantly; also recorded: did not decrease the open probability
- effect on single-channel conductance of cold-activated TRPM8 (TRPM8 [3]): does not change significantly; also recorded: did not further reduce the single-channel conductance
